Consider 11 compounds from ChEMBL document CHEMBL6182836 (RSC Med Chem, 2025).

As usually defined, the IC50 is the midpoint of a concentration-inhibition curve. As a reminder, the LC50 is the concentration that kills 50% of the test population. In general, half-life refers to the time in which the quantity being followed falls by half. What is called TGI is the concentration at which net growth stops. As usually defined, the GI50 is the concentration that inhibits growth by half.

Data set [1] concerns the target Cholinesterase (Homo sapiens, UniProt P06276). Kind of data set: Inhibition of BChE (unknown origin).
The target in data set [2] is Acetylcholinesterase (Homo sapiens, UniProt P22303). Briefly: Inhibition of AChE (unknown origin).
Data set [3] can be described thus: Neurotoxicity in Wistar rat primary cortical neurons assessed as inhibition of cell viability incubated for 24 hrs by LDH assay. The class given is toxicity, cell-based, Cortical neurone. The settings on record: for IC50 at 24 h: Wistar, primary cortical neurons; for Activity: cortical neurone, 24 h.
Data set [4] in a line: Neurotoxicity in Wistar rat primary cortical neurons assessed as cell viability at 0.001 to 100 uM incubated for 24 hrs by LDH assay. The settings on record: cortical neurone, dose 0.001-100 µM. The class given is toxicity, cell-based.
The target of data set [5] is Acetylcholinesterase (Electrophorus electricus, UniProt O42275). Kind of data set: Inhibition of electric eel AChE using acetylthiocholine iodide as substrate measured for 30 mins by Ellman's method. In general terms: DTNB colorimetry detects thiols as they appear.
Data set [6] has as its target Cholinesterase (Equus caballus, UniProt P81908).
Description: Inhibition of equine serum BuChE using butyrylthiocholine iodide as substrate measured for 30 mins by Ellman's method
The test system of data set [7] is Cortical neurone. Kind of data set: Neuroprotective activity against glutamate-induced excitotoxicity in Wistar rat primary cortical neurons assessed as cell death at 1 uM pretreated with compound for 24 hrs followed by incubation with glutamate for 20 mins by LDH assay relative to control. The class given is functional. The settings on record: time 1460 min, 24.33 h.

For data set [8], the system named is Cortical neurone. Briefly: Neuroprotective activity against glutamate-induced excitotoxicity in Wistar rat primary cortical neurons assessed as cell death at 1 uM pretreated with glutamate followed by compound addition measured after 24 hrs by LDH assay relative to control. The class given is functional.
A short description of data set [9]: Stability in human plasma assessed as compound remaining at 200 uM incubated for 240 mins by HPLC-UV analysis. The class given is ADME, cell-free. The settings on record: read-out: Stability.
The test system of data set [10] is Astrocyte. Briefly: Neuroprotective activity against glutamate-induced excitotoxicity in Wistar rat astrocytes co-cultured with neurons assessed as prevention of collapse of dendritic spines at 10 uM pretreated with compound for 24 hrs followed by incubation with glutamate for 20 mins by fluorescence based analysis. The class given is functional, cell-based. The settings on record: time 1460.0 min.

A short description of data set [11]: Neuroprotective activity against glutamate-induced excitotoxicity in Wistar rat hippocampal neurons assessed as increase in intracellular ATP level pretreated with glutamate followed by compound addition measured after 24 hrs by CellTiter-Glo assay (reference value: 70 %). The class given is functional, Hippocampal neuron. A general note: In ATP-based viability assays light output follows the ATP content of the culture.

For data set [12], the system named is Astrocyte. Kind of data set: Neuroprotective activity against glutamate-induced excitotoxicity in Wistar rat astrocytes co-cultured with neurons assessed as protection against cell injury at 10 uM pretreated with compound for 24 hrs followed by incubation with glutamate for 20 mins by fluorescence based analysis. The class given is functional. The settings on record: time 1460.0 min.

For data set [13], the system named is Astrocyte. Kind of data set: Neuroprotective activity against glutamate-induced excitotoxicity in Wistar rat astrocytes co-cultured with neurons assessed as decrease in LDH release at 10 uM pretreated with compound for 24 hrs followed by glutamate addition for 20 mins by spectrophotometric analysis relative to control. The class given is functional. Also on record: scale not given: the % may be the effect or the level left. The settings on record: time 1460 min, 24.33 h. Background: LDH leaks from cells whose membrane has failed.

Data set [14] has as its system Astrocyte. Kind of data set: Neuroprotective activity against glutamate-induced excitotoxicity in Wistar rat astrocytes co-cultured with neurons assessed as prevention of collapse of dendritic spines at 10 uM pretreated with glutamate followed by compound addition measured after 24 hrs by fluorescence based analysis. The class given is functional, cell-based.
The conditions of data set [15]: mouse, astrocyte, 24 h.
Description: Blood-brain barrier transwell (BBB-T) permeability in mouse bEnd.3 cells (luminal side) to C57BL/6 mouse astrocyte (abluminal side) measured after 24 hrs by Transwell assay
In data set [16] the test system is HepG2. The settings on record: human, hepg2, 24 h.
Description: Cytotoxicity against human HepG2 cells assessed as cell population mortality incubated for 24 hrs by SRB assay
In data set [17] the test system is Astrocyte. Kind of data set: Neuroprotective activity against glutamate-induced excitotoxicity in Wistar rat astrocytes co-cultured with neurons assessed as prevention of disruption of cytoskeleton at 10 uM pretreated with compound for 24 hrs followed by incubation with glutamate for 20 mins by fluorescence based analysis. The settings on record: time 1460.0 min. The class given is functional, cell-based.

Data set [18] can be described thus: Stability in human plasma at 200 uM measured after 240 mins by HPLC-UV analysis. The class given is ADME, cell-free. The settings on record: 4 h.
The subject of data set [19] is Astrocyte. Briefly: Neuroprotective activity against glutamate-induced excitotoxicity in Wistar rat astrocytes assessed as decrease in LDH release at 10 uM pretreated with glutamate followed by compound addition measured after 24 hrs by spectrophotometric analysis relative to control. The class given is functional. Also on record: scale not given: the % may be the effect or the level left.

For data set [20], the system named is Astrocyte. Kind of data set: Neuroprotective activity against glutamate-induced excitotoxicity in Wistar rat astrocytes co-cultured with neurons assessed as prevention of retraction of dendritic spines at 10 uM pretreated with compound for 24 hrs followed by incubation with glutamate for 20 mins by fluorescence based analysis. The class given is functional, cell-based. The settings on record: time 1460.0 min.

Data set [21] can be described thus: Stability in human plasma assessed as compound degradation at 200 uM measured after 240 mins by HPLC-UV analysis. The class given is ADME, cell-free. The settings on record: read-out: Drug degradation.
Data set [22] in a line: Stability in human plasma at pH 7.4 assessed as half life at 200 uM measured up to 240 mins by HPLC-UV analysis. The class given is ADME, cell-free.
The nature of data set [23]: Cytotoxicity against human HepG2 cells assessed as fold decrease in GI50 incubated for 24 hrs by SRB assay relative to tacrine. The class given is toxicity, cell-based. The settings on record: read-out: RatioGI50.
In data set [24] the test system is Astrocyte. Briefly: Neuroprotective activity against glutamate-induced excitotoxicity in Wistar rat astrocytes co-cultured with neurons assessed as prevention of disruption of cytoskeleton at 10 uM pretreated with glutamate followed by compound addition measured after 24 hrs by fluorescence based analysis. The class given is functional, cell-based.
Data set [25] has as its system HepG2. The settings on record: human, hepg2, 24 h. This is another data set of the same source.
Description: Cytotoxicity against human HepG2 cells assessed as total growth inhibition incubated for 24 hrs by SRB assay
Data set [26] can be described thus: in vitro. The settings on record: human, HepG2 cells.
Description: Cytotoxicity against human HepG2 cells assessed as inhibition of cell growth incubated for 24 hrs by SRB assay
The nature of data set [27]: Neuroprotective activity against glutamate-induced excitotoxicity in Wistar rat hippocampal neurons assessed as increase in intracellular ATP level pretreated with compound for 24 hrs followed by incubation with glutamate for 20 mins by CellTiter-Glo assay (reference value: 70 %). The class given is functional, Hippocampal neuron. The settings on record: time 1460 min; 24.33 h.

Data set [28] relates to Astrocyte. Briefly: Neuroprotective activity against glutamate-induced excitotoxicity in Wistar rat astrocytes co-cultured with neurons assessed as prevention of retraction of dendritic spines at 10 uM pretreated with glutamate followed by compound addition measured after 24 hrs by fluorescence based analysis. The class given is functional, cell-based.

Activity calls are given as the source filed them. The rule behind the calls is not given here.

Acetylcholinesterase (Electrophorus electricus, UniProt O42275), sequence (O42275 whole entry): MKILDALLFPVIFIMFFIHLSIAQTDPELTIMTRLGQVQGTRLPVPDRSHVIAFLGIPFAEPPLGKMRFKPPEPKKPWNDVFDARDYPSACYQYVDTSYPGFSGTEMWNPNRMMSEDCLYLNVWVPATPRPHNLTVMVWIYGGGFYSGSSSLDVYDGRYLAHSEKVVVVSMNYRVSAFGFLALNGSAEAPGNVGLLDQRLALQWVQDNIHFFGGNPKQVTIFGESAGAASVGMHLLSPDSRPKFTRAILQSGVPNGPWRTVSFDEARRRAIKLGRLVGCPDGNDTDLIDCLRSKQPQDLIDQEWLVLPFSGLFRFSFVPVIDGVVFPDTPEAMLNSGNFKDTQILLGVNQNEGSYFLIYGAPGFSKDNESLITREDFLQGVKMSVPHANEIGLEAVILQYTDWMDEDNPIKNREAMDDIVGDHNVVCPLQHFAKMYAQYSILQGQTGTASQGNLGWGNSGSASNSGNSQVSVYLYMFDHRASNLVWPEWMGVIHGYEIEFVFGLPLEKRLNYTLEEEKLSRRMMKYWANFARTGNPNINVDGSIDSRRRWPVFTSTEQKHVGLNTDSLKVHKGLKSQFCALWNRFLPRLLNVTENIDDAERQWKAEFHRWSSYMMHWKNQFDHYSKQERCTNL
Acetylcholinesterase (Homo sapiens, UniProt P22303), sequence (P22303 whole entry): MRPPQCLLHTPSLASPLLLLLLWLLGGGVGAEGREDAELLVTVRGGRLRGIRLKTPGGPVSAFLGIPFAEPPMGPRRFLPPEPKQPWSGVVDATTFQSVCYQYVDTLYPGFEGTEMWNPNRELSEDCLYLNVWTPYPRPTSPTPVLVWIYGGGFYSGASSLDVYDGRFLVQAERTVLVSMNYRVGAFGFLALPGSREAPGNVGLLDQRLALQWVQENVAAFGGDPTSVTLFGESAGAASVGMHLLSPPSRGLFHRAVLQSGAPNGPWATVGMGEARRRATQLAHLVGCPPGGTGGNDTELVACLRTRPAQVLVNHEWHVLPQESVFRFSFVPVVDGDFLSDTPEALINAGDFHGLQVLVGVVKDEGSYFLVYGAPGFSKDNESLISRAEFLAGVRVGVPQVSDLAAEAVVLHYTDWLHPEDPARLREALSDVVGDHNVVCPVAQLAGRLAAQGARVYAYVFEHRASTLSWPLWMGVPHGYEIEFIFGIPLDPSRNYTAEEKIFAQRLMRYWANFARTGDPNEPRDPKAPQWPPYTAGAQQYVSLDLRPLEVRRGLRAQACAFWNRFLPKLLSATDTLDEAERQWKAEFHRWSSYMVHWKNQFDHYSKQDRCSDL
Cholinesterase (Homo sapiens, UniProt P06276), sequence (P06276 whole entry): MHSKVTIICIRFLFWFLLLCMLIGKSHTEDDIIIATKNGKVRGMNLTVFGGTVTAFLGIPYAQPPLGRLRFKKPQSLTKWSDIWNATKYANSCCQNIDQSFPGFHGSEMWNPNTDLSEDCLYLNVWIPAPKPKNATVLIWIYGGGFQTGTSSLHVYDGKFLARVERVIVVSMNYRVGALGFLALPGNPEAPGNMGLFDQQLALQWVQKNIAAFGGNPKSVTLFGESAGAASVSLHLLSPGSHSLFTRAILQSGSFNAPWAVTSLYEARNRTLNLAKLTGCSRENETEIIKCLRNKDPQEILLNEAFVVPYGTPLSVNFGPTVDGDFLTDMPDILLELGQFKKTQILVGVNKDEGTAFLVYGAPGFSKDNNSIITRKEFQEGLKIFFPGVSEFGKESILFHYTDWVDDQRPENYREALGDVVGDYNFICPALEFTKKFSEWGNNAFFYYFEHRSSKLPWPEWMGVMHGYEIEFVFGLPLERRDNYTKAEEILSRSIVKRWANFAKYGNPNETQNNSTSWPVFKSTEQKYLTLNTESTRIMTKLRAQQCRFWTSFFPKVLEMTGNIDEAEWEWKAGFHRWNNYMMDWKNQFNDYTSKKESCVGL
Cholinesterase (Equus caballus, UniProt P81908), sequence (P81908 whole entry): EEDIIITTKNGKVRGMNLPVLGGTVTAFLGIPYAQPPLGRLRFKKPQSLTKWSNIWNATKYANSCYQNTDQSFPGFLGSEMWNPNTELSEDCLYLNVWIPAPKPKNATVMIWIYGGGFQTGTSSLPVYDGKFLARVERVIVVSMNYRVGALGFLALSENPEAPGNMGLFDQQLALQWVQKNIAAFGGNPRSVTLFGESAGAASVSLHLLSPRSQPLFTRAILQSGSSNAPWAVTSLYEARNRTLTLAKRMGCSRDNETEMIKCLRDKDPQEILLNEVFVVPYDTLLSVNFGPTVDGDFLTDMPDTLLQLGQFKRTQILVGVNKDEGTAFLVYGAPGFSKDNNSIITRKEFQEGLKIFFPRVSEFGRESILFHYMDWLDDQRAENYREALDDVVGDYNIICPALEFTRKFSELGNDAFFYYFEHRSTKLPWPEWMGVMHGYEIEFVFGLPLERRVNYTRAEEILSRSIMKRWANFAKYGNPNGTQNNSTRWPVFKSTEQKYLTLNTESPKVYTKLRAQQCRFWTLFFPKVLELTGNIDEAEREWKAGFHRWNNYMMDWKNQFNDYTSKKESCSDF

On to `COc1cc2c(cc1OC)CC(CN1CCN(CCCNc3c4c(nc5cc(Cl)ccc35)C[C@H]3C=C(C)C[C@@H]4C3)CC1)C2`, for which the 50% inhibitory concentration (IC50) in data set [1] came to 349 nM; in data set [2] it was 2.61 nM.

With `O=C(NCCCNc1c2c(nc3ccccc13)CCC2)c1cnc(Cl)c(Cl)c1`, the IC50 in data set [1] was determined as 158 nM; in [2], 52 nM.

With `Cc1cc(=O)[nH]c2c1C(=O)C(NCNc1c3c(nc4ccccc14)CCCC3)=CC2=O`, the half-maximal inhibitory concentration (IC50) in data set [1] was found to be 180 nM; in data set [2], 11.1 nM.

As to `COc1ccc(OC)c(C(C#N)N2CCN(CC(=O)Nc3c4c(nc5ccccc35)CCC4)CC2)c1` (racemic), in data set [3], the 50% inhibitory concentration (IC50) at 24 h came to 427000 nM. Further, the Activity result in data set [3] was “Toxic”; in data set [4] it was “Non-toxic”; in data set [7] it was 63.52%; in data set [8], 30.83%. Besides, the half-maximal inhibitory concentration (IC50) result in data set [5] was “Not_active”; in data set [6] it was 1720 nM.

With `COc1ccc(C(C#N)N2CCN(CC(=O)Nc3c4c(nc5ccccc35)CCC4)CC2)c(OC)c1` (racemic), the IC50 at 24 h in [3] was determined as 364000 nM. Further, the Activity entry is reported as “Toxic” in [3], “Non-toxic” in data set [4], 63.15% in data set [7] and 44.97% in data set [8]. In addition, the 50% inhibitory concentration (IC50) entry in data set [5] was “Not_active”; in data set [6], 910 nM.

Turning to `COc1cccc(C(C#N)N2CCN(CC(=O)Nc3c4c(nc5ccccc35)CCC4)CC2)c1OC` (racemic), the remaining at 4 h, 200 µM in data set [9] is 52.4%. For the same compound, the 50% inhibitory concentration (IC50) at 24 h in data set [3] turned out to be 476000 nM. Moreover, the Activity result in data set [3] is on record as “Toxic”; in data set [4], “Non-toxic”; in data set [11], 51.85%; in data set [13], roughly 33%; in data set [7], 71.05%; in data set [8] it was 47.45%. Moreover, the Activity is roughly 52% in data set [19] and 31.11% in data set [27]. The result in [10], in [12], in data set [14], in data set [17], in data set [20] and in data set [24] was Active. Besides, in data set [28], the outcome was Active. The IC50 in data set [5] (read-out: IC50) was determined as 440 nM; in [6] it was 310 nM. Also, the permeability in [15] was 58%. In data set [16], this compound gave an LC50 greater than 200000 nM. Further, the Stability entry in data set [18] is “Stable”. In data set [21], the metabolised at 4 h, 200 µM is roughly 48%. Moreover, the half-life at 200 µM in data set [22] is 4.8 h. In data set [23], the selectivity ratio at 24 h amounted to 8. Besides, in data set [25], the TGI amounted to 188160 nM. In data set [26], this compound came in with a 50% growth inhibitory concentration (GI50) at 24 h of 93600 nM.

`COc1ccc(C(C#N)N2CCN(CC(=O)Nc3c4c(nc5ccccc35)CCC4)CC2)cc1OC` (racemic): in data set [3], the IC50 at 24 h was 260000 nM. For the same compound, the Activity result in [3] was “Toxic”; in data set [4] it was “Non-toxic”; in data set [7], 58.28%; in [8], 38.98%. Moreover, the values for the IC50 entry in [5] and in data set [6] were “Not_active” and 440 nM, respectively.

As for `COc1ccc(C(C#N)N2CCN(CC(=O)Nc3c4c(nc5ccccc35)CCC4)CC2)cc1` (racemic), the IC50 at 24 h in data set [3] stood at 436000 nM. Also, the Activity result in data set [3] was “Toxic”; in [4] it was “Non-toxic”; in data set [7], 40.71%; in [8], 28.81%. Moreover, the IC50 entry in data set [5] is “Not_active”; in data set [6], 640 nM.

`CN(C)c1ccc(C(C#N)N2CCN(CC(=O)Nc3c4c(nc5ccccc35)CCC4)CC2)cc1` (racemic): in data set [3], the half-inhibitory concentration (IC50) at 24 h amounted to 218000 nM. The Activity entry is listed as “Toxic” in data set [3], “Non-toxic” in data set [4], 34.63% in data set [7] and 22.03% in [8]. The IC50 in data set [5] (read-out: IC50) is 480 nM; in data set [6] it was 410 nM.

`COc1cc(OC)cc(C(C#N)N2CCN(CC(=O)Nc3c4c(nc5ccccc35)CCC4)CC2)c1` (racemic): the IC50 at 24 h in data set [3] turned out to be 298000 nM. In addition, the Activity entry in [3] was “Toxic”; in data set [4], “Non-toxic”; in data set [7] it was 62.67%; in data set [8], 35.59%. Besides, the IC50 result was “Not_active” in [5] and 690 nM in [6].

As for `CC12CC3CC(C)(C1)CC(N)(C3)C2` [MEMANTINE], the half-maximal inhibitory concentration (IC50) at 24 h in data set [3] was 272000 nM. The Activity came to 44.44% in data set [11], 36.84% in data set [7], 46.61% in [8] and 10.37% in [27].
